Patent publication US20160159774A1 (Celgene Avilomics Research, Inc., priority 2014, published 2016)

Experiments:
[1] = target: T1, activated BTK enzyme (Homo sapiens, UniProt Q06187); test: Omnia assay for potency assessment against BTK; assay type: biochemical; settings: BTK inhibition assay; [BTK]=5 nM, [ATP]=40 μM, [Y5-Sox]=10 μM
T1 construct: purchased Life Technologies PV3363
Procedure, shortened: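 Activated BTK (5 nM) was pre-incubated 30 min at room temperature with compound, then reacted with 40 μM ATP (KMapp ~36 μM) and 10 μM Y5-Sox peptide in Tris pH 7.5/MgCl2/EGTA/DTT buffer. Sox fluorescence (ex360/em485) followed for 60 min; IC50 from initial velocities (~0–30 min) by variable-slope fit.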

[2] = target: T2, BTK in Ramos human Burkitt lymphoma cells (Homo sapiens, UniProt Q06187); test: BTK Ramos cellular assay (BTK occupancy); assay type: cell-based; settings: concentration producing 50% occupancy of BTK, 1 hour incubation with compound
T2 construct: Compounds of this invention were assayed in Ramos human Burkitt lymphoma cells; endogenous in cells; host or cells: Ramos human Burkitt lymphoma cells
Procedure, shortened: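 Ramos cells at 2×10^6 cells/mL in serum-free medium treated 1 hour with compound (500 to 0.7 nM final), then lysed. Free BTK captured by biotinylated covalent probe (1 μM final, 1 h) on streptavidin plate, detected by anti-Btk ELISA at OD 450 nm against recombinant Btk standard, normalized to total protein; value is concentration giving 50% occupancy.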

T1 sequence (Q06187 whole entry): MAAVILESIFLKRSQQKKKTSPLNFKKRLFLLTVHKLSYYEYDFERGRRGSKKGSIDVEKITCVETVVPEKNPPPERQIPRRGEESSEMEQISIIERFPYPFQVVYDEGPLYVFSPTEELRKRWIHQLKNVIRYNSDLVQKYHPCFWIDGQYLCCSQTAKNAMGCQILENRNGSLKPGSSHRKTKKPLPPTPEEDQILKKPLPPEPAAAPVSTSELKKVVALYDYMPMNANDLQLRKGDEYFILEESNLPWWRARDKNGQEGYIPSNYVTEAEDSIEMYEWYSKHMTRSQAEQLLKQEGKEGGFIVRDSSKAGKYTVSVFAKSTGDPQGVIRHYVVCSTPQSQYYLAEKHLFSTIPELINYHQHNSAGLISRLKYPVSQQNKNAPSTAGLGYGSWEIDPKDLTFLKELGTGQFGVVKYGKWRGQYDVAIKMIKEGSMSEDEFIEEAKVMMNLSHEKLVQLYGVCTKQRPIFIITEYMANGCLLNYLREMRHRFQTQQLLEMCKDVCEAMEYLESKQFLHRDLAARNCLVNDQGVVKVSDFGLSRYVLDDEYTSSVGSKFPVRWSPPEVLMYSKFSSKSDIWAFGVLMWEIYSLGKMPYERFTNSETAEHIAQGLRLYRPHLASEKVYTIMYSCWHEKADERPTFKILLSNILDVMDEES
T2 sequence (Q06187 whole entry): as above

| IC50 [1] | EC50 [2] | melting point | Structure (SMILES) |
| --- | --- | --- | --- |
| < 10 nM | 10 to 100 nM | 118 to 121 °C | C=CC(=O)N1CCC[C@@H](Nc2nc(Nc3ccc4c(c3)CN(C(C)(C)C)CC4)ncc2F)C1 [Compound I-49, (R)-1-(3-(2-(2-tert-Butyl-1,2,3,4-tetrahydroisoquinolin-7-ylamino)-5-fluoropyrimidin-4-ylamino)piperidin-1-yl)prop-2-en-1-one] |
| < 10 nM | < 10 nM | 104 to 106 °C | C=CC(=O)N1CCC[C@@H](Nc2nc(Nc3ccc4c(c3)CCN(CC3COC3)CC4)ncc2F)C1 [Compound I-59, (R)-1-(3-(5-Fluoro-2-(3-(oxetan-3-ylmethyl)-2,3,4,5-tetrahydro-1H-benzo[d]azepin-7-ylamino)pyrimidin-4-ylamino)piperidin-1-yl)prop-2-en-1-one] |
| < 10 nM | < 10 nM | 80 to 82 °C | C=CC(=O)N1CCC[C@@H](Nc2nc(Nc3ccc4c(c3)CN(CC3CC3)CC4)ncc2F)C1 [Compound I-47, (R)-1-(3-(2-(2-(Cyclopropylmethyl)-1,2,3,4-tetrahydroisoquinolin-7-ylamino)-5-fluoropyrimidin-4-ylamino)piperidin-1-yl)prop-2-en-1-one] |
| < 10 nM | 10 to 100 nM | 103 to 105 °C | C=CC(=O)N1CCC[C@@H](Nc2nc(Nc3ccc4c(c3)CN(CC3COC3)CCC4)ncc2F)C1 [Compound I-56, (R)-1-(3-(5-Fluoro-2-(2-(oxetan-3-ylmethyl)-2,3,4,5-tetrahydro-1H-benzo[c]azepin-8-ylamino)pyrimidin-4-ylamino)piperidin-1-yl)prop-2-en-1-one] |
| < 10 nM | < 10 nM | 105 to 107 °C | C=CC(=O)N1CCC[C@@H](Nc2nc(Nc3ccc4c(c3)CN(C3CC3)CC4)ncc2F)C1 [Compound I-48, (R)-1-(3-(2-(2-Cyclopropyl-1,2,3,4-tetrahydroisoquinolin-7-ylamino)-5-fluoropyrimidin-4-ylamino)piperidin-1-yl)prop-2-en-1-one] |
